Laboratory results: patent US8084466B2, “Bicyclic heteroaryl-substituted imidazoles as modulators of the histamine H4 receptor” (Janssen Pharmaceutica NV, priority 2007, dated 2011)

Target: T1, human histamine H4 receptor (Homo sapiens, UniProt Q9H3N8)
T1 construct: expressed in transfected cells; host or cells: SK-N-MC cells or COS7 cells, transient transfection with pH4R; cell membranes
Assay: Binding Assay on Recombinant Human Histamine H4 Receptor
Settings: competition binding with 3H-histamine (5 nM; KD 5 nM), membranes of SK-N-MC or COS7 cells expressing human H4 receptor; average of results; > = highest value tested
Protocol: Biological Methods: Binding Assay on Recombinant Human Histamine H4 Receptor
SK-N-MC cells or COS7 cells were transiently transfected with pH4R and grown in 150 cm^2 tissue culture dishes. Cells were washed with saline solution, scraped with a cell scraper and collected by centrifugation (1000 rpm, 5 min). Cell membranes were prepared by homogenization of the cell pellet in 20 mM Tris-HCl with a polytron tissue homogenizer for 10 sec at high speed. Homogenate was centrifuged at 1000 rpm for 5 min at 4° C. The supernatant was then collected and centrifuged at 20,000×g for 25 min at 4° C. The final pellet was resuspended in 50 mM Tris-HCl. Cell membranes were incubated with ^3H-histamine (5-70 nM) in the presence or absence of excess histamine (10,000 nM). Incubation occurred at room temperature for […]. Membranes were harvested by rapid filtration over Whatman GF/C filters and washed 4 times with ice-cold 50 mM Tris HCl. Filters were then dried, mixed with scintillant and counted for radioactivity. SK-N-MC or COS7 cells expressing human histamine H4 receptor were used to measure the affinity of binding of other compounds and their ability to displace ^3H-ligand binding by incubating the above-described reaction in the presence of various concentrations of inhibitor or compound to be tested. For competition binding studies using ^3H-histamine, Ki values were calculated, based on an experimentally determined KD value of 5 nM and a ligand concentration of 5 nM, according to Y.-C.

T1 sequence (Q9H3N8 whole entry): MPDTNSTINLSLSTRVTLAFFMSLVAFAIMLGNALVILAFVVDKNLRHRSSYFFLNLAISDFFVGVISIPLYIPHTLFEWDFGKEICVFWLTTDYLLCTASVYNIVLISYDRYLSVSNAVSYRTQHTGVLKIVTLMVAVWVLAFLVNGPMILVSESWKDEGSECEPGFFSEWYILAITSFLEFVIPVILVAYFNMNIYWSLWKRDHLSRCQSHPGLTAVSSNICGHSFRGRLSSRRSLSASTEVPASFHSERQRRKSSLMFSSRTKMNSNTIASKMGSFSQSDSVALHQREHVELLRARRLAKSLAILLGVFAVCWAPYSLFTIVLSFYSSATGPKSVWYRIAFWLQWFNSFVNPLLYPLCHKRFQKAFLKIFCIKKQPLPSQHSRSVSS

First: CN1CCC(CCCCn2ccc3c(-c4nc5c(Cl)cccc5[nH]4)cccc32)CC1 [Example 17, 4-Chloro-2-{1-[4-(1-methyl-piperidin-4-yl)-butyl]-1H-indol-4-yl}-1H-benzoimidazole]
Second: COC(=O)c1ccc2nc(-c3cccc4c3c(Cl)cn4CCCCC3CCN(C)CC3)[nH]c2c1 [Example 137, 2-{3-Chloro-1-[4-(1-methyl-piperidin-4-yl)-butyl]-1H-indol-4-yl}-3H-benzoimidazole-5-carboxylic acid methyl ester]
The Ki of the first is 50-fold lower: 58 nM for the first, 2880 nM for the second.

Going from `CN1CCC(CCCCn2cnc3ccc(-c4nc5cc(F)ccc5[nH]4)cc32)CC1` [Example 126, 5-Fluoro-3′-[4-(1-methyl-piperidin-4-yl)-butyl]-1H,3′H [2,5′]bibenzoimidazolyl] to `Cc1ccc2[nH]c(-c3ccc4ncn(CCCCC5CCN(C)CC5)c4c3)nc2c1C` [Example 125, 4,5-Dimethyl-3′-[4-(1-methyl-piperidin-4-yl)-butyl]-1H,3′H-[2,5′]bibenzoimidazolyl], the Ki falls from greater than 10000 nM to 2670 nM. The second binds more tightly here.

Going from `Cc1c(F)ccc2[nH]c(-c3ccc4ncn(CCCC5CCN(C)CC5)c4c3)nc12` [Example 41, 5-Fluoro-4-methyl-3′-[3-(1-methyl-piperidin-4-yl)-propyl]-1H,3′H-[2,5′]bibenzoimidazolyl] to `Cc1c(F)ccc2[nH]c(-c3ccc4ccn(CCCCC5CCNCC5)c4c3)nc12` [Example 38, 5-Fluoro4-methyl-2-[1-(4-piperidin-4-yl-butyl)-1H-indol-6-yl]-1H-benzoimidazole], the Ki rises from 397 nM to 1140 nM (2.9-fold). The first binds more tightly here.

First: CN1CCC(CCCn2ccc3cc(-c4nc5cc(Cl)ccc5[nH]4)c(Cl)cc32)CC1 [Example 102, 5-Chloro-2-{6-chloro-1-[3-(1-methyl-piperidin-4-yl)-propyl]-1H-indol-5-yl}-1H-benzoimidazole]
Second: CN1CCC(CCCn2ccc3cc(-c4nc5c(F)cc(F)cc5[nH]4)c(Cl)cc32)CC1 [Example 48, 2-{6-Chloro-1-[3-(1-methyl-piperidin-4-yl)-propyl]-1H-indol-5-yl}-4,6-difluoro-1H-benzoimidazole]
The Ki of the first is higher: greater than 10000 nM for the first, 1030 nM for the second.

First: O=C(c1ccccc1)c1ccc2[nH]c(-c3cccc4c3c(Cl)cn4CCCCC3CCNCC3)nc2c1 [Example 129, {2-[3-Chloro-1-(4-piperidin-4-yl-butyl)-1H-indol-4-yl]-1H-benzoimidazol-5-yl}-phenyl-methanone]
Second: Cc1nc2ccc3nc(-c4cccc5c4c(Cl)cn5CCCCC4CCNCC4)[nH]c3c2s1 [Example 134, 7-[3-Chloro-1-(4-piperidin-4-yl-butyl)-1H-indol-4-yl]-2-methyl-8H-imidazo[4′,5′:3,4]benzo[1,2-d]thiazole]
The Ki of the first is lower: 2000 nM for the first, greater than 10000 nM for the second.

`CN(C)Cc1cn(CCCCC2CCNCC2)c2ccc(-c3nc4cc(C(C)(C)C)ccc4[nH]3)cc12` [Example 39, [5-(5-tert-Butyl-1H-benzoimidazol-2-yl)-1-(4-piperidin-4-yl-butyl)-1H-indol-3-ylmethyl]-dimethyl-amine] and `Cc1cc(C)c2nc(-c3ccc4ccn(CCCCC5CCNCC5)c4c3)[nH]c2c1` [Example 37, 4,6-Dimethyl-2-[1-(4-piperidin-4-yl-butyl)-1H-indol-6-yl]-1H-benzoimidazole] are within 1.5-fold of each other in Ki: 2920 nM for the first, 2230 nM for the second.

Going from `Cc1nc(-c2ccc3c(ncn3CCCC3CCN(C)CC3)c2C)[nH]c1-c1cc(Cl)cc(Cl)c1` [Example 83, 5-[5-(3,5-Dichloro-phenyl)-4-methyl-1H-imidazol-2-yl]-4-methyl-1-[3-(1-methyl-piperidin-4-yl)-propyl]-1H-benzoimidazole] to `Cc1c(F)ccc2[nH]c(-c3cc4ccn(CCCC5CCNCC5)c4cc3Cl)nc12` [Example 49, 2-[6-Chloro-1-(3-piperidin-4-yl-propyl)-1H-indol-5-yl]-5-fluoro-4-methyl-1H-benzoimidazole], the Ki rises from 0.3 nM to 1730 nM (5800-fold).

Work on `Cc1nc2ccc3nc(-c4cccc5c4c(Cl)cn5CCCCC4CCN(C)CC4)[nH]c3c2s1` [Example 136, 7-{3-Chloro-1-[4-(1-methyl-piperidin-4-yl)-butyl]-1H-indol-4-yl}-2-methyl-8H-imidazo[4′,5′:3,4]benzo[1,2-d]thiazole] yielded a Ki of 941 nM.
